Consider six compounds from patent publication US6809092B2, “Benezene-fused heteroring derivatives and pharmaceutical agents comprising the same as active ingredient” (Ono Pharmaceutical Co., Ltd., priority 2000, dated 2004).

Each structure is given as a SMILES string.

As usually defined, the Ki is the equilibrium dissociation constant of an inhibitor or competing ligand from its target. For orientation: inhibition means how much of the control response was suppressed.

What all share (assay type): biochemical
Test [1] has as its target T1, cathepsin K (Homo sapiens, UniProt P43235).
T1 sequence (P43235 115-329): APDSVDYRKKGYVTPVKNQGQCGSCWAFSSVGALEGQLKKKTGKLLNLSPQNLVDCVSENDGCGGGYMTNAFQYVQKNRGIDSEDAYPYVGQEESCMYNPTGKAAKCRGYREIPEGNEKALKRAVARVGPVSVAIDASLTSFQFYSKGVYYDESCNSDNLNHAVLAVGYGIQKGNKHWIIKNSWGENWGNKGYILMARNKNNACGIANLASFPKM
Nature of the test: Measurement of cathepsin K inhibitory activity. Conditions: Dixon plot, pH 5.5, 37° C. As to the method:
(i) Measurement of Cathepsin K Inhibitory Activity
65 μL of Cathepsin K enzyme reaction buffer (50 mmol/L of 2-(N-morpholino)ethanesulfonate, 2 mmol/L of ethylenediamine tetraacetate (EDTA) and 4 mmol/L of dithiothreitol (DTT) were mixed to adjust to pH 5.5), 5 μL of cysteine protease inhibitor solution of several concentrations, 20 μL of synthesized substrate (t-butyloxycarbonyl-L-alanyl-glycyl-L-prolyl-L-arginine-4-methyl-chromanyl-7-amide) solution of several concentrations and 10 μL of cathepsin K enzyme solution were mixed and the increase of fluorescence intensity when reacted at 37° C. was measured (λ ex (excitation wavelength)=355 nm, λ em (fluorescence wavelength)=460 nm). As to the substrate and the compound of the present invention, enzyme reactions were carried out in combination of several appropriate concentrations and Dixon plotting was prepared, to define the absolute value of X-coordinate of the intersection point of the graph as Ki value.

In test [2] the target is cathepsin B (Homo sapiens, UniProt P07858). Briefly: Measurement of cathepsin B inhibitory activity. As to the method:
(ii) Measurement of Cathepsin B Inhibitory Activity
10 μL of Synthesized substrate (carbobenzoxy-L-arginyl-L-arginine-4-methyl-chromanyl-7-amide or carbobenzoxy-L-phenylalanyl-L-arginine-4-methyl-chromanyl-7-amide) solution of several concentrations, 10 μL of cysteine protease inhibitor solution of several concentrations, 70 μL of cathepsin B enzyme reaction buffer (mixture of 400 mmol/L in acetic acid, 4 mmol/L EDTA, 8 mmol/L DDT to adjust to pH 5.5) and 10 μL of cathepsin B enzyme solution were mixed and the increase of fluorescence intensity was measured (λ ex (excitation wavelength)=355 nm, μ em (fluorescence wavelength)=460 nm) when reacted at 37° C.
For example, the inhibitory activity of the compound of example 10 was 95% at 1 μM.

Test [3] deals with cathepsin S (Homo sapiens, UniProt P25774). Briefly: Measurement of cathepsin S inhibitory activity. As to the method:
(iii) Measurement of Cathepsin S Inhibitory Activity
10 μL of synthesized substrate (carbobenzoxy-L-leucyl-L-leucyl-L-arguinine-4-methyl-chromanyl-7-amide) solution and 5 μL of cysteine protease inhibitor solution of several concentrations, 75 μL of cathepsin S enzyme reaction buffer (100 mmol/L of sodium phosphate, 2 mmol/L of EDTA, 2 mmol/L of DTT were mixed to adjust to pH 6.5) and 10 μL of cathepsin S enzyme solution were mixed and the increase of fluorescence intensity was measured (λ ex(excitation wavelength)=355 nm, λ em (fluorescence wavelength)=460 nm) when reacted at 37° C.
It was confirmed that the compound of the present invention of formula (I) has an inhibitory effect more than 50% at 10 μM. For example, the inhibitory activity of the compound of example 18 was 98% at 1 μM.

Test [4] concerns the target cathepsin L (Homo sapiens, UniProt P07711). Briefly: Measurement of cathepsin L inhibitory activity. On the procedure: (iv) Measurement of Cathepsin L Inhibitory Activity
5 μL of Synthesized substrate (carbobenzoxy-L-phenylalanyl-L-arguine-4-methyl-chromanyl-7-amide or L-prolyl-L-phenylalanyl-L-arguinine-4-methyl-chromanyl-7-amide) solution and 5 μL of cysteine protease inhibitor solution of several concentrations, 80 μL of cathepsin L enzyme reaction buffer (400 mmol/L acetic acid, 4 mmol/L EDTA, 8 mmol/L DTT were mixed to adjust to pH 5.5) and 10 μL of cathepsin L enzyme solution were mixed and the increase of fluorescence intensity was measured (λ ex (excitation wavelength)=355 nm, λ em (fluorescence wavelength)=460 nm) when reacted at 37° C.
For example, the inhibitory activity of the compound of example 22(4) was 97% at 1 μM.

Chain of cathepsin L (P07711 114-333, species assumed): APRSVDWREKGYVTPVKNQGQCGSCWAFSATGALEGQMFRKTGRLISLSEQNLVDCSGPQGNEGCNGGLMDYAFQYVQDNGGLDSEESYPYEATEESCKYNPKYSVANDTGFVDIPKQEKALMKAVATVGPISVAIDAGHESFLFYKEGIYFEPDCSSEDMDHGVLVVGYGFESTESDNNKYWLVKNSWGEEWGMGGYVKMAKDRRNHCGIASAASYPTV
Chain of cathepsin S (P25774 115-331, species assumed): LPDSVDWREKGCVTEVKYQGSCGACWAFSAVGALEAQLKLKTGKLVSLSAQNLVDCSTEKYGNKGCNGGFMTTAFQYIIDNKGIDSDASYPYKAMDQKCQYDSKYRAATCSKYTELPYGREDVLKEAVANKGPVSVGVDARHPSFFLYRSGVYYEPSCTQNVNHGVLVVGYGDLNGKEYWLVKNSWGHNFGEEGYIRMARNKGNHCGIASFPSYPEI

Consider `CC(C)C[C@H](NC(=O)[C@H](CC(C)C)NC(=O)OCc1ccccc1)C(=O)CN1CCCc2ccccc2C1` [3(14), (2S)-N-[(3S)-5-methyl-2-oxo-1-(1,3,4,5-tetrahydro-2H-2-benzazepin-2-yl)-3-hexyl]-4-methyl-2-benzyloxycarbonylamino pentanamide], for which, in test [1], the inhibition constant (Ki) amounted to 100 nM. The same measure, in the same setting: then `CC(C)C[C@H](NC(=O)[C@H](CC(C)C)NC(=O)OCc1ccccc1)C(=O)CN1CCSc2ccccc2C1` [example 31, (2S)-N-[(3S)-5-methyl-2-oxo-1-(2,3,4,5-tetrahydro-1,4-benzothiazepin-4-yl)-3-hexyl]-2-benzyloxycarbonylamino-4-methylpentanamide], with 81 nM. Turning to `CC(C)C[C@H](NC(=O)[C@@H]1CCCC[C@@H]1NC(=O)c1ccccc1)C(=O)CN1CCCCc2ccccc21` [example 10], testing at 1 µM in test [2] gave an inhibition of 95%.

Take `CC(C)CC(NC(=O)[C@H](CC(C)C)NC(=O)OCc1ccccc1)C(=O)CN1CCCc2cc(O)ccc2C1` (stereo partly drawn) [example 18]: testing at 1 µM in test [3] gave an inhibition of 98%. For `CC(C)C[C@H](NC(=O)[C@H](CC(C)C)NC(=O)OCc1ccccc1)C(=O)CN1CCN(C(C)C)c2ccccc2C1` [example 22(4), (2S)-N-[(3S)-5-methyl-1-(1-isopropyl-2,3,4,5-tetrahydro-1H-1,4-benzodiazepin-4-yl)-2-oxo-3-hexyl]-2-benzyloxycarbonyl amino-4-methylpentanamide], the inhibition at 1 µM in test [4] stood at 97%. On to `CC(C)C[C@H](NC(=O)[C@@H]1CCCC[C@@H]1NC(=O)c1ccccc1)C(=O)CN1CCCc2ccccc2C1` [example 3], for which, in test [1], the inhibitory constant (Ki) is 170 nM.
